Data: patent US10723705B2, “Heterocyclic compounds and uses thereof” (Incyte Corporation, priority 2015, dated 2020)
Read-outs that look alike come from different tables or passages of the source.

Target: Human recombinant Histone Deacetylase 8 (HDAC8) (Homo sapiens (Human), UniProt Q9BY41)
Assay: HDAC8 Enzymatic Assay (HDAC-Glo I/II luminescence)
Format: biochemical
Method in brief: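 Human recombinant HDAC8 (1.5 nM final) preincubated with compound for 30 min, then reacted with 50 μM Boc-GAK(Ac)-aminoluciferin plus trypsin-containing developer for 15 min at room temperature, pH 8.0, 0.5% DMSO. Luminescence read-out; IC50 from percent control activity versus log concentration.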

[1] = class symbols, Table 14, read-out: HDAC8 IC50

Sequence of Human recombinant Histone Deacetylase 8 (HDAC8) (Q9BY41 whole entry): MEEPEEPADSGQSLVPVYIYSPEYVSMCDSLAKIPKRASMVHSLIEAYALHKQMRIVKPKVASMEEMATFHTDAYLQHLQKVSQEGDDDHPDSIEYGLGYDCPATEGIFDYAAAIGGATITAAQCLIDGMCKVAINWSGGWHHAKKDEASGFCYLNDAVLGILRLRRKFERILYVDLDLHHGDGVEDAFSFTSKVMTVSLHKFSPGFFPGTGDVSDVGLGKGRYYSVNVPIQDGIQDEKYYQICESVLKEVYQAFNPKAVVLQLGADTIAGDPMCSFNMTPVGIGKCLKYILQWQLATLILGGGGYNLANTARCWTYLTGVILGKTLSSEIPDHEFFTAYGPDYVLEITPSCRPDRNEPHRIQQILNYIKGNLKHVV

| IC50 [1] | IC50 (HDAC8, read-out: IC50) | SMILES |
| --- | --- | --- |
| ≤ 0.05 µM | – | CNC(=O)c1ccc(-c2nccc3c(C#CC4CC4)n(C(Cc4ccccc4)C(=O)NO)nc23)cc1 (stereo not shown) [Compound I-0141, 4-(3-(cyclopropylethynyl)-2-(1-(hydroxyamino)-1-oxo-3-phenylpropan-2-yl)-2H-pyrazolo[3,4-c]pyridin-7-yl)-N-methylbenzamide] |
| ≤ 0.05 µM | – | CN(C)C(=O)c1ccc(-c2nccc3c(C#CC4CC4)n(C(Cc4ccccc4)C(=O)NO)nc23)cc1 (stereo not shown) [Compound I-0142, 4-(3-(cyclopropylethynyl)-2-(1-(hydroxyamino)-1-oxo-3-phenylpropan-2-yl)-2H-pyrazolo[3,4-c]pyridin-7-yl)-N,N-dimethylbenzamide] |
| > 0.5 µM | – | O=C(NO)C(Cc1ccccc1)n1ncc2ccc(-c3cnn(CCN4CCOCC4)c3)cc21 (stereo not shown) [Compound I-0143, N-hydroxy-2-(6-(1-(2-morpholinoethyl)-1H-pyrazol-4-yl)-1H-indazol-1-yl)-3-phenylpropanamide] |
| 0.05 to 0.2 µM | – | CC(=O)N1CCN(c2cncc(-c3ccc4cnn(C(Cc5ccccc5)C(=O)NO)c4c3)c2)CC1 (stereo not shown) [Compound I-0144, 2-(6-(5-(4-acetylpiperazin-1-yl)pyridin-3-yl)-1H-indazol-1-yl)-N-hydroxy-3-phenylpropanamide] |
| – | 0.717 µM | CC1CCN(c2cccc3nn(C(Cc4ccccc4)C(=O)NO)cc23)CC1 (stereo not shown) [Compound I-0145, N-hydroxy-2-(4-(4-methylpiperidin-1-yl)-2H-indazol-2-yl)-phenylpropanamide] |
| 0.2 to 0.5 µM | – | CC(C)Oc1ccc(-c2cccc3nn(C(Cc4ccccc4)C(=O)NO)cc23)cn1 (stereo not shown) [Compound I-0146, N-hydroxy-2-(4-(6-isopropoxypyridin-3-yl)-2H-indazol-2-yl)-3-phenylpropanamide] |

More lines, now with the values behind:

| SMILES | IC50 [1] | IC50 (HDAC8, read-out: IC50) |
| --- | --- | --- |
| O=C(NO)C(Cc1ccccc1)n1ncc2cc(-c3cccnc3)cnc21 (stereo not shown) [Compound I-0132, N-hydroxy-3-phenyl-2-(5-(pyridin-3-yl)-1H-pyrazolo[3,4-b]pyridin-1-yl)propanamide] | 0.2 to 0.5 µM | – |
| O=C(NO)C(Cc1ccccc1)n1ncc2cc(-c3ccncc3)cnc21 (stereo not shown) [Compound I-0133, N-hydroxy-3-phenyl-2-(5-(pyridin-4-yl)-1H-pyrazolo[3,4-b]pyridin-1-yl)propanamide] | > 0.5 µM | – |
| O=C(NO)C(Cc1ccccc1)c1cnc2c(Cl)cccn12 (stereo not shown) [Compound I-0134, 2-(8-Chloroimidazo[1,2-a]pyridin-3-yl)-N-hydroxy-3-phenylpropanamide] | 0.2 to 0.5 µM | 0.258 µM |
| O=C(NO)C(Cc1ccccc1)n1nc2c(Cl)cccc2c1I (stereo not shown) [Compound I-0135, 2-(7-chloro-3-iodo-2H-indazol-2-yl)-N-hydroxy-3-phenylpropanamide] | 0.2 to 0.5 µM | – |
| O=C(NO)C(Cc1ccccc1)n1nc2c(Cl)cccc2c1C#CC1CC1 (stereo not shown) [Compound I-0136, 2-(7-chloro-3-(cyclopropylethynyl)-2H-indazol-2-yl)-N-hydroxy-3-phenylpropanamide] | ≤ 0.05 µM | – |
| Cn1nccc1-c1cccc2c(C#CC3CC3)n(C(Cc3ccccc3)C(=O)NO)nc12 (stereo not shown) [Compound I-0137, 2-(3-(cyclopropylethynyl)-7-(1-methyl-1H-pyrazol-5-yl)-2H-indazol-2-yl)-N-hydroxy-3-phenylpropanamide] | ≤ 0.05 µM | – |
| NC(=O)c1ccc(-c2cccc3c(C#CC4CC4)n(C(Cc4ccccc4)C(=O)NO)nc23)cc1 (stereo not shown) [Compound I-0138, 4-(3-(cyclopropylethynyl)-2-(1-(hydroxyamino)-1-oxo-3-phenylpropan-2-yl)-2H-indazol-7-yl)benzamide] | ≤ 0.05 µM | – |
| CN(C)C(=O)c1ccc(-c2cccc3c(C#CC4CC4)n(C(Cc4ccccc4)C(=O)NO)nc23)cc1 (stereo not shown) [Compound I-0139, 4-(3-(cyclopropylethynyl)-2-(1-(hydroxyamino)-1-oxo-3-phenylpropan-2-yl)-2H-indazol-7-yl)-N,N-dimethylbenzamide] | ≤ 0.05 µM | – |
| NC(=O)c1ccc(-c2nccc3c(C#CC4CC4)n(C(Cc4ccccc4)C(=O)NO)nc23)cc1 (stereo not shown) [Compound I-0140, 4-(3-(cyclopropylethynyl)-2-(1-(hydroxyamino)-1-oxo-3-phenylpropan-2-yl)-2H-pyrazolo[3,4-c]pyridin-7-yl)benzamide] | ≤ 0.05 µM | – |
